Source: ChEMBL document CHEMBL1150850, “Cytotoxic principles from Ventilago leiocarpa” (J Nat Prod, 2001)

How the values were obtained:
[1] = test system: Calu-1; experiment: Inhibition of human Calu1 cell proliferation assessed as [3H]thymidine incorporation after 3 days by scintillation counting; format: functional, cell-based
[2] = test system: HeLa; experiment: Inhibition of human HeLa cell proliferation assessed as [3H]thymidine incorporation after 3 days by scintillation counting; format: functional, cell-based
[3] = test system: K562; experiment: Inhibition of human K562 cell proliferation assessed as [3H]thymidine incorporation after 3 days by scintillation counting; format: functional, cell-based
[4] = test system: Raji; experiment: Inhibition of human Raji cell proliferation assessed as [3H]thymidine incorporation after 3 days by scintillation counting; format: functional, cell-based
[5] = test system: Vero; experiment: Inhibition of african green monkey Vero cell proliferation assessed as [3H]thymidine incorporation after 3 days by scintillation counting; format: cell-based; settings: Chlorocebus sabaeus
[6] = test system: WISH; experiment: Inhibition of human WISH cell proliferation assessed as [3H]thymidine incorporation after 3 days by scintillation counting; format: functional, cell-based
[7] = test system: Calu-1; experiment: Growth inhibition of human Calu1 cells assessed as [3H]thymidine incorporation at 100 uM after 3 days by scintillation counting; format: functional; settings: read-out: GI
[8] = test system: Calu-1; experiment: Growth inhibition of human Calu1 cells assessed as [3H]thymidine incorporation at 50 uM after 3 days by scintillation counting; format: functional; settings: read-out: GI
[9] = test system: Calu-1; experiment: Growth inhibition of human Calu1 cells assessed as [3H]thymidine incorporation at 25 uM after 3 days by scintillation counting; format: functional; settings: read-out: GI
[10] = test system: Calu-1; experiment: Growth inhibition of human Calu1 cells assessed as [3H]thymidine incorporation at 12.5 uM after 3 days by scintillation counting; format: functional; settings: read-out: GI
[11] = test system: Calu-1; experiment: Growth inhibition of human Calu1 cells assessed as [3H]thymidine incorporation at 6.25 uM after 3 days by scintillation counting; format: functional; settings: read-out: GI
[12] = test system: HeLa; experiment: Growth inhibition of human HeLa cells assessed as [3H]thymidine incorporation at 100 uM after 3 days by scintillation counting; format: functional; settings: read-out: GI
[13] = test system: HeLa; experiment: Growth inhibition of human HeLa cells assessed as [3H]thymidine incorporation at 50 uM after 3 days by scintillation counting; format: functional; settings: read-out: GI
[14] = test system: HeLa; experiment: Growth inhibition of human HeLa cells assessed as [3H]thymidine incorporation at 25 uM after 3 days by scintillation counting; format: functional; settings: read-out: GI
[15] = test system: HeLa; experiment: Growth inhibition of human HeLa cells assessed as [3H]thymidine incorporation at 12.5 uM after 3 days by scintillation counting; format: functional; settings: read-out: GI
[16] = test system: HeLa; experiment: Growth inhibition of human HeLa cells assessed as [3H]thymidine incorporation at 6.25 uM after 3 days by scintillation counting; format: functional; settings: read-out: GI
[17] = test system: K562; experiment: Growth inhibition of human K562 cells assessed as [3H]thymidine incorporation at 100 uM after 3 days by scintillation counting; format: functional; settings: read-out: GI
[18] = test system: Raji; experiment: Growth inhibition of human Raji cells assessed as [3H]thymidine incorporation at 100 uM after 3 days by scintillation counting; format: functional; settings: read-out: GI
[19] = test system: Raji; experiment: Growth inhibition of human Raji cells assessed as [3H]thymidine incorporation at 50 uM after 3 days by scintillation counting; format: functional; settings: read-out: GI
[20] = test system: Raji; experiment: Growth inhibition of human Raji cells assessed as [3H]thymidine incorporation at 25 uM after 3 days by scintillation counting; format: functional; settings: read-out: GI
[21] = test system: Raji; experiment: Growth inhibition of human Raji cells assessed as [3H]thymidine incorporation at 12.5 uM after 3 days by scintillation counting; format: functional; settings: read-out: GI
[22] = test system: Raji; experiment: Growth inhibition of human Raji cells assessed as [3H]thymidine incorporation at 6.25 uM after 3 days by scintillation counting; format: functional; settings: read-out: GI
[23] = Growth inhibition of african green monkey Vero cells assessed as [3H]thymidine incorporation at 100 uM after 3 days by scintillation counting; format: cell-based; settings: chlorocebus sabaeus, read-out: GI
[24] = Growth inhibition of african green monkey Vero cells assessed as [3H]thymidine incorporation at 50 uM after 3 days by scintillation counting; format: cell-based; settings: chlorocebus sabaeus, read-out: GI
[25] = Growth inhibition of african green monkey Vero cells assessed as [3H]thymidine incorporation at 25 uM after 3 days by scintillation counting; format: cell-based; settings: chlorocebus sabaeus, read-out: GI
[26] = test system: Vero; experiment: Growth inhibition of african green monkey Vero cells assessed as [3H]thymidine incorporation at 12.5 uM after 3 days by scintillation counting; format: cell-based; settings: chlorocebus sabaeus, 72 h
[27] = Growth inhibition of african green monkey Vero cells assessed as [3H]thymidine incorporation at 6.25 uM after 3 days by scintillation counting; format: cell-based; settings: chlorocebus sabaeus, read-out: GI
[28] = test system: WISH; experiment: Growth inhibition of human WISH cells assessed as [3H]thymidine incorporation at 100 uM after 3 days by scintillation counting; format: functional; settings: read-out: GI
[29] = test system: WISH; experiment: Growth inhibition of human WISH cells assessed as [3H]thymidine incorporation at 50 uM after 3 days by scintillation counting; format: functional; settings: read-out: GI
[30] = test system: WISH; experiment: Growth inhibition of human WISH cells assessed as [3H]thymidine incorporation at 25 uM after 3 days by scintillation counting; format: functional; settings: read-out: GI
[31] = test system: WISH; experiment: Growth inhibition of human WISH cells assessed as [3H]thymidine incorporation at 12.5 uM after 3 days by scintillation counting; format: functional; settings: read-out: GI
[32] = test system: WISH; experiment: Growth inhibition of human WISH cells assessed as [3H]thymidine incorporation at 6.25 uM after 3 days by scintillation counting; format: functional; settings: read-out: GI

**Q.** With `COc1cc(C)c(O)c2c1C(=O)c1c(O)cccc1C2=O` as the molecule, how does the IC50 [1] read?
**A.** > 100 µM

**Q.** What about the IC50 [2] of the same molecule?
**A.** > 100 µM

**Q.** What about the IC50 [3] of the same molecule?
**A.** > 100 µM

**Q.** What about the IC50 [4] of the same molecule?
**A.** > 100 µM

**Q.** What about the IC50 [5] of the same molecule?
**A.** > 100 µM

**Q.** What about the IC50 [6] of the same molecule?
**A.** > 100 µM

**Q.** With `COc1c(O)cc2c(c1OC)C(=O)c1c(cc(C)c(O)c1O)C2=O` as the molecule, how does the IC50 [1] read?
**A.** > 100 µM

**Q.** And the IC50 [2]?
**A.** > 100 µM

**Q.** And the IC50 [3]?
**A.** > 100 µM

**Q.** What about the IC50 [4] of the same molecule?
**A.** > 100 µM

**Q.** And the IC50 [5]?
**A.** > 100 µM

**Q.** And the IC50 [6]?
**A.** > 100 µM

**Q.** With `Cc1cc(O)c2c(c1O)C(=O)c1cc(O)cc(O)c1C2=O` [CATENARIN] as the molecule, how does the IC50 [1] read?
**A.** > 100 µM

**Q.** And the IC50 [2]?
**A.** > 100 µM

**Q.** What about the IC50 [3] of the same molecule?
**A.** > 100 µM

**Q.** And the IC50 [4]?
**A.** > 100 µM

**Q.** And the IC50 [5]?
**A.** > 100 µM

**Q.** And the IC50 [6]?
**A.** > 100 µM

**Q.** For `Cc1cc(O)c2c(c1)C(=O)c1cccc(O)c1C2=O` [CHRYSOPHANOL], which IC50 [1] is on record?
**A.** > 100 µM

**Q.** What about the IC50 [2] of the same molecule?
**A.** > 100 µM

**Q.** And the IC50 [3]?
**A.** > 100 µM

**Q.** What about the IC50 [4] of the same molecule?
**A.** > 100 µM

**Q.** And the IC50 [5]?
**A.** > 100 µM

**Q.** What about the IC50 [6] of the same molecule?
**A.** > 100 µM

**Q.** With `O=C1c2c(O)cc(O)cc2O[C@H](c2ccc(O)cc2)[C@H]1O` [DIHYDROKAEMPFEROL] as the molecule, how does the IC50 [1] read?
**A.** > 100 µM

**Q.** What about the IC50 [2] of the same molecule?
**A.** > 100 µM

**Q.** And the IC50 [3]?
**A.** > 100 µM

**Q.** And the IC50 [4]?
**A.** > 100 µM

**Q.** And the IC50 [5]?
**A.** > 100 µM

**Q.** And the IC50 [6]?
**A.** > 100 µM

**Q.** What does the source list for `Cc1cc(O)c2c(c1)C(=O)c1cc(O)cc(O)c1C2=O` [EMODIN]?
**A.** inhibition of growth at 100 µM [7]: 100%; inhibition of growth at 50 µM [8]: 100%; inhibition of growth at 25 µM [9]: 100%; inhibition of growth at 12.5 µM [10]: 60.6%; inhibition of growth at 6.25 µM [11]: 49.4%; IC50 [1]: 6.25 µM; inhibition of growth at 100 µM [12]: 100%; inhibition of growth at 50 µM [13]: 100%; inhibition of growth at 25 µM [14]: 78.3%; inhibition of growth at 12.5 µM [15]: 41.9%; inhibition of growth at 6.25 µM [16]: 24.7%; IC50 [2]: 15.6 µM; inhibition of growth at 100 µM [17]: 29.5%; IC50 [3]: > 100 µM; inhibition of growth at 100 µM [18]: 100%; inhibition of growth at 50 µM [19]: 47.2%; inhibition of growth at 25 µM [20]: 45.8%; inhibition of growth at 12.5 µM [21]: 41.2%; inhibition of growth at 6.25 µM [22]: 0.3%; IC50 [4]: 43.8 µM; inhibition at 72 h, 100 µM [23]: 69.1%; inhibition at 72 h, 50 µM [24]: 64.4%; inhibition at 72 h, 25 µM [25]: 26.7%; growth inhibition (GI) [26]: 13.7%; inhibition at 72 h, 6.25 µM [27]: 3.3%; IC50 [5]: 40 µM; inhibition of growth at 100 µM [28]: 80.7%; inhibition of growth at 50 µM [29]: 63.3%; inhibition of growth at 25 µM [30]: 61.9%; inhibition of growth at 12.5 µM [31]: 22%; inhibition of growth at 6.25 µM [32]: 8.7%; IC50 [6]: 28.8 µM

**Q.** With `Cc1cc(O)c2c(c1O)C(=O)c1cccc(O)c1C2=O` [ISLANDICIN] as the molecule, how does the IC50 [1] read?
**A.** > 100 µM

**Q.** And the IC50 [2]?
**A.** > 100 µM

**Q.** And the IC50 [3]?
**A.** > 100 µM

**Q.** What about the IC50 [4] of the same molecule?
**A.** > 100 µM

**Q.** What about the IC50 [5] of the same molecule?
**A.** > 100 µM

**Q.** And the IC50 [6]?
**A.** > 100 µM
